Data published in patent publication US12679843B2, “Pyrrolopyrimidine amines as complement inhibitors” (BioCryst Pharmaceuticals, Inc., priority 2020, dated 2026).

What follows are compounds tested against Factor D (Homo sapiens, UniProt P00746) (assay: Factor D esterolytic assay (Z-Lys-SBzl thioester substrate, DTNB, 405 nm)). Conditions: substrate Z-Lys-SBzl 1.29 mM, 100 mM HEPES, 500 mM NaCl, pH 7.5, 10% DMSO, tested a minimum of three times.
Format: biochemical
Procedure, shortened: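 Run in pH 7.5 HEPES (100 mM) with 500 mM NaCl and 10% DMSO, with compound preincubated at room temperature or not before adding 1.29 mM Z-Lys-SBzl. Free thiol released by Factor D reacts with DTNB, and rate is followed at 405 nm minus 690 nm over 600 s. IC50 derives from rate-based inhibition, minimum three replicates.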

Factor D, sequence (P00746 26-253): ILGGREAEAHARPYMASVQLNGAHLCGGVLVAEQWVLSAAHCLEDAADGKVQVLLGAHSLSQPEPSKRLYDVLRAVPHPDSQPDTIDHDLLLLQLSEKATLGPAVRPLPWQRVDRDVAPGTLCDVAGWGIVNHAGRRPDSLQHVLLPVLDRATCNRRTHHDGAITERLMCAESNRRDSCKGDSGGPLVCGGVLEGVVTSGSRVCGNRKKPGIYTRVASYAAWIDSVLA

IC50 [nM] | SMILES
< 100 | Cc1cc(C(F)(F)F)cc2c3c(N)ncnc3n(CC(=O)N3C[C@H](F)C[C@H]3C(=O)Nc3cccc(Cl)n3)c12 [Compound 300a, (2S,4R)-1-(2-(4-amino-8-methyl-6-(trifluoromethyl)-9H-pyrimido[4,5-b]indol-9-yl)acetyl)-N-(6-chloropyridin-2-yl)-4-fluoropyrrolidine-2-carboxamide]
< 100 | Cc1cc(C(F)(F)F)cc2c3c(N)ncnc3n(CC(=O)N3C[C@H](F)C[C@H]3C(=O)Nc3cccc(Br)n3)c12 [Compound 301a, (2S,4R)-1-(2-(4-amino-8-methyl-6-(trifluoromethyl)-9H-pyrimido[4,5-b]indol-9-yl)acetyl)-N-(6-bromopyridin-2-yl)-4-fluoropyrrolidine-2-carboxamide]
< 100 | Cc1ccc(Br)nc1NC(=O)[C@@H]1C[C@@]2(C)C[C@H]2N1C(=O)Cn1c2ncnc(N)c2c2cc(C(F)(F)F)cc(C)c21 [Compound 302a, (1R,3S,5R)-2-(2-(4-amino-8-methyl-6-(trifluoromethyl)-9H-pyrimido[4,5-b]indol-9-yl)acetyl)-N-(6-bromo-3-methylpyridin-2-yl)-5-methyl-2-azabicyclo[3.1.0]hexane-3-carboxamide]
< 100 | Cc1ccc(Br)nc1NC(=O)[C@@H]1C[C@H]2C[C@H]2N1C(=O)Cn1c2ncnc(N)c2c2cc(C(F)(F)F)cc(C)c21 [Compound 303a, (1R,3S,5R)-2-(2-(4-amino-8-methyl-6-(trifluoromethyl)-9H-pyrimido[4,5-b]indol-9-yl)acetyl)-N-(6-bromo-3-methylpyridin-2-yl)-2-azabicyclo[3.1.0]hexane-3-carboxamide]
< 100 | Cc1cc(C(F)(F)F)cc2c3c(N)ncnc3n(CC(=O)N3C[C@](C)(F)C[C@H]3C(=O)Nc3cccc(Br)n3)c12 [Compound 304a, (2S,4R)-1-(2-(4-amino-8-methyl-6-(trifluoromethyl)-9H-pyrimido[4,5-b]indol-9-yl)acetyl)-N-(6-bromopyridin-2-yl)-4-fluoro-4-methylpyrrolidine-2-carboxamide]
< 100 | Cc1cc(C(F)(F)F)cc2c3c(N)ncnc3n(CC(=O)N3C[C@](C)(F)C[C@H]3C(=O)Nc3cncc(Br)n3)c12 [Compound 305a, (2S,4R)-1-(2-(4-amino-8-methyl-6-(trifluoromethyl)-9H-pyrimido[4,5-b]indol-9-yl)acetyl)-N-(6-bromopyrazin-2-yl)-4-fluoro-4-methylpyrrolidine-2-carboxamide]
< 100 | Cc1cc(C(F)(F)F)cc2c3c(N)ncnc3n(CC(=O)N3CCC[C@H]3C(=O)Nc3cccc(Br)n3)c12 [Compound 306a, (S)-1-(2-(4-amino-8-methyl-6-(trifluoromethyl)-9H-pyrimido[4,5-b]indol-9-yl)acetyl)-N-(6-bromopyridin-2-yl)pyrrolidine-2-carboxamide]
< 100 | Nc1ncnc2c1c1nc(-c3ccncc3)ccc1n2CC(=O)N1[C@@H]2C[C@@H]2C[C@H]1C(=O)Nc1cccc(Br)n1 [Compound 307c, (1R,3S,5R)-2-(2-(4-amino-6-(pyridin-4-yl)-9H-pyrido[2′,3′:4,5]pyrrolo[2,3-d]pyrimidin-9-yl)acetyl)-N-(6-bromopyridin-2-yl)-2-azabicyclo[3.1.0]hexane-3-carboxamide]
< 100 | Cc1ncc(-c2cc(C)c3c(c2)c2c(N)ncnc2n3CC(=O)N2[C@@H]3C[C@@H]3C[C@H]2C(=O)Nc2cccc(Br)n2)cn1 [Compound 308c, (1R,3S,5R)-2-(2-(4-amino-8-methyl-6-(2-methylpyrimidin-5-yl)-9H-pyrimido[4,5-b]indol-9-yl)acetyl)-N-(6-bromopyridin-2-yl)-2-azabicyclo[3.1.0]hexane-3-carboxamide]
< 100 | Cc1ncc(-c2cc(C)c3c(c2)c2c(N)ncnc2n3CC(=O)N2[C@H](C(=O)Nc3cccc(Br)n3)C[C@@]3(C)C[C@@H]23)cn1 [Compound 309a, (1R,3S,5R)-2-(2-(4-amino-8-methyl-6-(2-methylpyrimidin-5-yl)-9H-pyrimido[4,5-b]indol-9-yl)acetyl)-N-(6-bromopyridin-2-yl)-5-methyl-2-azabicyclo[3.1.0]hexane-3-carboxamide]
< 100 | Cc1ncc(-c2cc(C)c3c(c2)c2c(N)ncnc2n3CC(=O)N2[C@@H]3C[C@@H]3C[C@H]2C(=O)Nc2nc(Br)ccc2C)cn1 [Compound 310a, (1R,3S,5R)-2-(2-(4-amino-8-methyl-6-(2-methylpyrimidin-5-yl)-9H-pyrimido[4,5-b]indol-9-yl)acetyl)-N-(6-bromo-3-methylpyridin-2-yl)-2-azabicyclo[3.1.0]hexane-3-carboxamide]
< 100 | Cc1ncc(-c2cc(C)c3c(c2)c2c(N)ncnc2n3CC(=O)N2[C@H](C(=O)Nc3nc(Br)ccc3C)C[C@@]3(C)C[C@@H]23)cn1 [Compound 311a, (1R,3S,5R)-2-(2-(4-amino-8-methyl-6-(2-methylpyrimidin-5-yl)-9H-pyrimido[4,5-b]indol-9-yl)acetyl)-N-(6-bromo-3-methylpyridin-2-yl)-5-methyl-2-azabicyclo[3.1.0]hexane-3-carboxamide]
< 100 | Cc1ncc(-c2cc(C)c3c(c2)c2c(N)ncnc2n3CC(=O)N2C[C@H](F)C[C@H]2C(=O)Nc2cccc(Br)n2)cn1 [Compound 312a, (2S,4R)-1-(2-(4-amino-8-methyl-6-(2-methylpyrimidin-5-yl)-9H-pyrimido[4,5-b]indol-9-yl)acetyl)-N-(6-bromopyridin-2-yl)-4-fluoropyrrolidine-2-carboxamide]
< 100 | Cc1ncc(NC(=O)[C@@H]2C[C@H]3C[C@H]3N2C(=O)Cn2c3ncnc(N)c3c3cc(C(F)(F)F)cc(C)c32)nc1Br [Compound 313b, (1R,3S,5R)-2-(2-(4-amino-8-methyl-6-(trifluoromethyl)-9H-pyrimido[4,5-b]indol-9-yl)acetyl)-N-(6-bromo-5-methylpyrazin-2-yl)-2-azabicyclo[3.1.0]hexane-3-carboxamide]
< 100 | Cc1cc(C)c2c(c1)c1c(N)ncnc1n2CC(=O)N1[C@H](C(=O)Nc2cncc(Br)n2)C[C@@]2(C)C[C@@H]12 [Compound 314a, (1R,3S,5R)-2-(2-(4-amino-6,8-dimethyl-9H-pyrimido[4,5-b]indol-9-yl)acetyl)-N-(6-bromopyrazin-2-yl)-5-methyl-2-azabicyclo[3.1.0]hexane-3-carboxamide]
< 100 | Cc1ncc(-c2cc(C)c3c(c2)c2c(N)ncnc2n3CC(=O)N2[C@H](C(=O)Nc3cccc(Cl)n3)C[C@@]3(C)C[C@@H]23)cn1 [Compound 315a, (1R,3S,5R)-2-(2-(4-amino-8-methyl-6-(2-methylpyrimidin-5-yl)-9H-pyrimido[4,5-b]indol-9-yl)acetyl)-N-(6-chloropyridin-2-yl)-5-methyl-2-azabicyclo[3.1.0]hexane-3-carboxamide]
< 100 | Cc1ncc(-c2cc(C)c3c(c2)c2c(N)ncnc2n3CC(=O)N2C[C@](C)(F)C[C@H]2C(=O)Nc2cccc(Br)n2)cn1 [Compound 316a, (2S,4R)-1-(2-(4-amino-8-methyl-6-(2-methylpyrimidin-5-yl)-9H-pyrimido[4,5-b]indol-9-yl)acetyl)-N-(6-bromopyridin-2-yl)-4-fluoro-4-methylpyrrolidine-2-carboxamide]
100 to 1000 | Cc1cc(C(F)(F)F)cc2c3c(N)ncnc3n(CC(=O)N3[C@@H]4C[C@@H]4C[C@H]3C(=O)Nc3nc(Br)ccc3F)c12 [Compound 317c, (1R,3S,5R)-2-(2-(4-amino-8-methyl-6-(trifluoromethyl)-9H-pyrimido[4,5-b]indol-9-yl)acetyl)-N-(6-bromo-3-fluoropyridin-2-yl)-2-azabicyclo[3.1.0]hexane-3-carboxamide]
< 100 | Cc1ccc(Cl)nc1NC(=O)[C@@H]1C[C@H]2C[C@H]2N1C(=O)Cn1c2ncnc(N)c2c2cc(C(F)(F)F)cc(C)c21 [Compound 318c, (1R,3S,5R)-2-(2-(4-amino-8-methyl-6-(trifluoromethyl)-9H-pyrimido[4,5-b]indol-9-yl)acetyl)-N-(6-chloro-3-methylpyridin-2-yl)-2-azabicyclo[3.1.0]hexane-3-carboxamide]
< 100 | Cc1cc(C(F)(F)F)cc2c3c(N)ncnc3n(CC(=O)N3[C@@H]4C[C@@H]4C[C@H]3C(=O)Nc3nc(Cl)ccc3F)c12 [Compound 319c, (1R,3S,5R)-2-(2-(4-amino-8-methyl-6-(trifluoromethyl)-9H-pyrimido[4,5-b]indol-9-yl)acetyl)-N-(6-chloro-3-fluoropyridin-2-yl)-2-azabicyclo[3.1.0]hexane-3-carboxamide]
< 100 | Cc1cc(C(F)(F)F)cc2c3c(N)ncnc3n(CC(=O)N3C[C@](C)(F)C[C@H]3C(=O)Nc3cccc(Cl)n3)c12 [Compound 320c, (2S,4R)-1-(2-(4-amino-8-methyl-6-(trifluoromethyl)-9H-pyrimido[4,5-b]indol-9-yl)acetyl)-N-(6-chloropyridin-2-yl)-4-fluoro-4-methylpyrrolidine-2-carboxamide]
< 100 | Cc1cc(C(F)(F)F)cc2c3c(N)ncnc3n(CC(=O)N3C[C@H](F)C[C@H]3C(=O)Nc3cncc(Br)n3)c12 [Compound 321d, (2S,4R)-1-(2-(4-amino-8-methyl-6-(trifluoromethyl)-9H-pyrimido[4,5-b]indol-9-yl)acetyl)-N-(6-bromopyrazin-2-yl)-4-fluoropyrrolidine-2-carboxamide]
< 100 | Cc1cc(F)c(Br)nc1NC(=O)[C@@H]1C[C@H]2C[C@H]2N1C(=O)Cn1c2ncnc(N)c2c2cc(C(F)(F)F)cc(C)c21 [Compound 322c, (1R,3S,5R)-2-(2-(4-amino-8-methyl-6-(trifluoromethyl)-9H-pyrimido[4,5-b]indol-9-yl)acetyl)-N-(6-bromo-5-fluoro-3-methylpyridin-2-yl)-2-azabicyclo[3.1.0]hexane-3-carboxamide]
